According to ChEMBL document CHEMBL3272170, “Potential antitumor agents. 24. Dicationic analogues of the 4'-(9-acridinylamino)alkanesulfonanilides” (J Med Chem, 1977):

How the values were obtained:
[1] = physchem
Description: Ionization constant, pKa of the compound by UV spectrophotometric analysis

[2] = in vivo; settings: C3H X DBA2 F1, mouse, ip
Description: Toxicity in ip dosed C3H X DBA2 F1 mouse allografted with mouse L1210 cells through ip

[3] = in vivo; settings: C3H X DBA2 F1, mouse, ip; remark: listed apart in the source
Description: Toxicity in ip dosed C3H X DBA2 F1 mouse allografted with mouse L1210 cells through sc

Row | Compound | pKa [1] | MTD [2] [mg/kg/day] | MTD [3] [mg/kg/day]
1 | C[n+]1c2ccccc2c(Nc2ccc(NS(C)(=O)=O)cc2)c2ccc(N)cc21 | 10.1 |  | 
2 | Cl.NCCS(=O)(=O)Nc1ccc(Nc2c3ccccc3nc3ccccc23)cc1 | 6.62 | 35 | 
3 | Cl.NCCCCCS(=O)(=O)Nc1ccc(Nc2c3ccccc3nc3ccccc23)cc1 | 6.92 | 60 | 
4 | Cl.NCCCCCCS(=O)(=O)Nc1ccc(Nc2c3ccccc3nc3ccccc23)cc1 | 6.92 | 65 | 
5 | Cl.NCCCS(=O)(=O)Nc1ccc(Nc2c3ccccc3nc3cc([N+](=O)[O-])ccc23)cc1 | 5.33 |  | 20
6 | Cl.NCCCCCS(=O)(=O)Nc1ccc(Nc2c3ccccc3nc3cc([N+](=O)[O-])ccc23)cc1 | 5.36 |  | 44
7 | Cl.NCCCCCCS(=O)(=O)Nc1ccc(Nc2c3ccccc3nc3cc([N+](=O)[O-])ccc23)cc1 | 5.34 |  | 2
8 | Cl.NCCCCCCCCS(=O)(=O)Nc1ccc(Nc2c3ccccc3nc3cc([N+](=O)[O-])ccc23)cc1 | 5.35 | 30 | 
9 | COc1cc(NS(=O)(=O)CCCCN)ccc1Nc1c2ccccc2nc2cc([N+](=O)[O-])ccc12 | 5.58 |  | 
10 | CN(C)CCCCS(=O)(=O)Nc1ccc(Nc2c3ccccc3nc3cc([N+](=O)[O-])ccc23)cc1.Cl | 5.36 |  | 10
11 | C[n+]1c2ccccc2c(Nc2ccc(NS(=O)(=O)CCCCN)cc2)c2ccccc21 | 6.72 |  | 
12 | Cc1cccc2c(Nc3ccc(NS(=O)(=O)CCCCN)cc3)c3ccc([N+](=O)[O-])cc3nc12.Cl | 5.44 | 200 | 
13 | Cc1ccc2c(Nc3ccc(NS(=O)(=O)CCCCN)cc3)c3ccc([N+](=O)[O-])cc3nc2c1C | 5.52 |  | 
14 | C[n+]1c2ccccc2c(Nc2ccc(NS(=O)(=O)CCNC(=O)CCN)cc2)c2ccccc21 | 6.7 |  | 
15 | N=C(N)NCCS(=O)(=O)Nc1ccc(Nc2c3ccccc3nc3cc([N+](=O)[O-])ccc23)cc1 | 5.26 |  | 
16 | Cl.N=C(N)NCCCCS(=O)(=O)Nc1ccc(Nc2c3ccccc3nc3ccccc23)cc1 | 6.91 | 75 | 
17 | Cl.N=C(N)NCCCCS(=O)(=O)Nc1ccc(Nc2c3ccccc3nc3cc(Cl)ccc23)cc1 | 6.33 | 150 | 
18 | C[n+]1c2ccccc2c(Nc2ccc(NS(=O)(=O)CCCCNC(=N)N)cc2)c2ccccc21.[Br-] | 6.69 | 150 | 
19 | Cc1cccc2c(Nc3ccc(NS(=O)(=O)CCCCNC(=N)N)cc3)c3cccc(C)c3nc12 | 6.41 |  | 
20 | CC(=O)Nc1ccc2c(Nc3ccc(NS(=O)(=O)CCNC(=N)N)cc3)c3ccc([N+](=O)[O-])cc3nc2c1 | 5.55 |  | 
21 | N=C(N)NCCCS(=O)(=O)Nc1ccc(Nc2c3ccc([N+](=O)[O-])cc3nc3cc([N+](=O)[O-])ccc23)cc1 | 3.68 |  | 
22 | CS(=O)(=O)Nc1ccc(Nc2c3ccccc3nc3ccccc23)cc1 | 7.19 |  | 
23 | Nc1c2ccccc2nc2ccccc12 [AMINACRINE] | 9.6 |  | 

The next lines start with results.

Row | pKa [1] | Compound | MTD [2] [mg/kg/day] | MTD [3] [mg/kg/day]
24 | 5.34 | N=C(N)NCCCS(=O)(=O)Nc1ccc(Nc2c3ccccc3nc3cc([N+](=O)[O-])ccc23)cc1 |  | 
25 | 6.89 | NCCCS(=O)(=O)Nc1ccc(Nc2c3ccccc3nc3ccccc23)cc1 |  | 
26 | 6.91 | NCCCCS(=O)(=O)Nc1ccc(Nc2c3ccccc3nc3ccccc23)cc1 |  | 
27 | 5.25 | NCCS(=O)(=O)Nc1ccc(Nc2c3ccccc3nc3cc([N+](=O)[O-])ccc23)cc1 |  | 
28 | 5.34 | NCCCCS(=O)(=O)Nc1ccc(Nc2c3ccccc3nc3cc([N+](=O)[O-])ccc23)cc1 |  | 
29 | 5.36 | NCCCCCCCS(=O)(=O)Nc1ccc(Nc2c3ccccc3nc3cc([N+](=O)[O-])ccc23)cc1 |  | 
30 | 7.16 | CC(=O)Nc1ccc2c(Nc3ccc(NS(=O)(=O)CCCCN)cc3)c3ccccc3nc2c1 |  | 
31 | 6.9 | NCC(=O)NCCS(=O)(=O)Nc1ccc(Nc2c3ccccc3nc3ccccc23)cc1 |  | 
32 | 6.91 | NCCC(=O)NCCS(=O)(=O)Nc1ccc(Nc2c3ccccc3nc3ccccc23)cc1 |  | 
33 | 5.34 | NCC(=O)NCCS(=O)(=O)Nc1ccc(Nc2c3ccccc3nc3cc([N+](=O)[O-])ccc23)cc1 |  | 
34 | 5.35 | NCCC(=O)NCCS(=O)(=O)Nc1ccc(Nc2c3ccccc3nc3cc([N+](=O)[O-])ccc23)cc1 |  | 
35 | 5.36 | N=C(N)NCCCCS(=O)(=O)Nc1ccc(Nc2c3ccccc3nc3cc([N+](=O)[O-])ccc23)cc1 |  | 
36 | 5.36 | N=C(N)NCCCCCS(=O)(=O)Nc1ccc(Nc2c3ccccc3nc3cc([N+](=O)[O-])ccc23)cc1 |  | 
37 | 5.35 | N=C(N)NCCCCCCS(=O)(=O)Nc1ccc(Nc2c3ccccc3nc3cc([N+](=O)[O-])ccc23)cc1 |  | 
38 | 5.58 | CC(=O)Nc1ccc2c(Nc3ccc(NS(=O)(=O)CCCNC(=N)N)cc3)c3ccc([N+](=O)[O-])cc3nc2c1 |  | 
